# In patent US7968323B2, “Bacterial ghost (BG) production process using betapropiolactone (BPL) for final inactivation” (priority 2008, dated 2011):
# Tests used:
# [1] = tested on: E. coli NM522 (pBBR1MCS5); assay: BPL treatment of E. coli NM522 (pBBR1MCS5, no E-lysis), small scale, CFU; type: cell-based; details: 0.05% BPL, 42° C., 30 min
# Experimental: (§1) 2. Comparison of E. coli NM522 (pBBR1MCS5, no E-lysis) and E. coli BG NM522 (pGlysivb, E-lysis Plasmid) Treated vs. Nontreated with BPL at a Final Concentration of 0.05% BPL at 42° C.
# (§2) Data from E. coli NM522 (pBBR1MCS5) that have been treated with 0.05% BPL at 42° C. (FIG. 4A) are showing that a reduction in viability of ˜5 log is obtained in small scale experiments whereas E. coli BG NM522 (pGlysivb) treated with 0.05% BPL at 42° C. […] Using a concentration of 0.05% BPL under a temperature of 42° C. and 30 min for the reaction is sufficient for E-lysed bacteria to be safely inactivated; no living cell counts are detected.
# [2] = tested on: E. coli BG NM522 (pGlysivb); assay: BPL treatment of E. coli BG NM522 (pGlysivb, E-lysis plasmid), small scale, CFU; type: cell-based; details: 0.05% BPL, 42° C., 30 min
# Experimental: as §1, §2
# [3] = tested on: E. coli NM522 pGlysivb; assay: Temperature study of BPL inactivation rates; type: cell-based; details: 0.05% BPL; for reduction of CFU: within 30 min; for time to BPL inactivation: starting CFU approximately 110^3/ml
# From the text: The sterilizing activity of BPL and its self destruction in water is temperature dependant.
# [4] = tested on: E. coli NM522 (backbone plasmid pBBR1MCS5); assay: BPL treatment in 20 l fermenter, control without lysis, CFU; type: cell-based; details: 0.05% BPL, 42° C., 30 min
# From the text: (§3) During the production process samples of the culture broth are taken at fixed timepoints (labeled A-M in FIG. 3) to determine optical density, colony forming units (CFU), BG appearance by microscopy as well as for real time PCR analysis of DNA contents. Fermentation parameters like pH, air flow, pO2, stirring and temperature are automatically documented by the fermentation program. Throughout the consistency study all parameters were kept in a narrow window.
# (§4) BPL killing rates as well as DNA concentration of bacterial samples were measured at time points and under fermentation conditions as described for BG production (Example 1, FIG. 3).
# [5] = tested on: E. coli NM522 BG (pGlysivb); assay: BPL treatment in 20 l fermenter, E-lysed BG, CFU; type: cell-based; details: 0.05% BPL, 42° C., 30 min
# Experimental: (§5) Gram negative bacteria (e.g E. coli or Shigella flexneri 2a in this study) are transformed with plasmid pGlysivb (encoding lysis gene E, construction as described in FIG. 2) or pGLNIc (encoding both the lysis gene E and the Staphylococcus aureus nuclease gene SNUC; WO 03/006630). Plasmids, pGlysivb and pGLNIc tightly regulate expression of lysis gene E by a temperature upshift from 35° C. to 42-44° C. under the mutated thermosensitive Lambda-promotor (λPRmut) and the expression of SNUC depends on induction from an upstream lac-promotor by addition of IPTG. As a consequence of protein E expression an E-specific tunnel structure between the inner and outer membrane of the bacteria is formed resulting in the expulsion of the cytoplasmic contents, including chromosomal and plasmid DNA, into the culture media under conditions described, at least 99.9% of all bacteria are converted into BG during the E-lysis process. To guarantee nucleic acid free BG a second system is activated in case of pGLNIc making use of the DNA and RNA degrading capabilities of SNUC. […]
# as §4
# [6] = tested on: E. coli NM522 (pGlysivb, pSNUCIQ3); assay: BPL inactivation of E-SNUC BG in 20 l fermenter; type: cell-based; details: 42° C., 30 min
# Experimental: as §5, with “SNUC. The nuclease is expressed −30 min before induction of gene E expression during the exponential growth phase of the bacteria and is activated after completion of E-lysis by addition of magnesiumchloride and calciumchloride.” for “SNUC.”
# [7] = tested on: Shigella flexneri 2a (backbone plasmid pBBR1MCS5); assay: Control fermentations inactivated with BPL, CFU; type: cell-based; details: 0.05% BPL, 30 min, two control fermentations
# From the text: as §3
# To determine the inactivation effect of BPL to Shigella flexneri 2a bacteria under the same fermentation conditions as for production of BG two control fermentations using Shigella flexneri 2a transformed with the backbone plasmid pBBR1MCS5 (no lysis, no nuclease) were performed. BPL killing rates as well as DNA concentration of bacterial samples was measured at time points and under fermentation conditions described for BG production (Example 1, FIG. 3).
# [8] = cited from earlier work
structure (smiles),measurement,setting,value
"O=C1CCO1 [BPL, betapropiolactone]",reduction in viability,[1],~5 log
same,surviving bacteria after BPL treatment,[2],no surviving bacteria
same,reduction of CFU,[3]; 16° C.,less than 0.5 log
same,reduction of CFU,[3]; 28° C.,approximately 1.5 log
same,time to BPL inactivation,[3]; 36° C.,30 min
same,time to BPL inactivation,[3]; 42° C.,15 min
same,reduction in viability,[4],~3 log
same,"inactivation, live CFU at end of BG production process",[5],total inactivation
same,concentration used for total inactivation by BPL,[6],less than 0.025%
same,drop in living cell counts (CFU),[7],4 log
same,solubility in water,[8],highly soluble in water
